For this assay, the system named is leukotrienes. Put plainly: leukotriene antagonist properties (test not specified; standard tests). To be noted: in words. On the procedure: Using this procedure, tracheal tissue strips are set up in groups of eight, four being used as time/vehicle controls and four for each test compound. All of the strips are exposed to 8×10^-9 M leukotriene E4 (LTE4) following the 50 minute equilibration period, and the response recorded. This concentration of LTE4 is that which produces a contraction equal to about 70-80% of the maximal effect of the agonist in this tissue. The LTE4 is washed out for 40-45 minutes and the procedure repeated twice to ensure that reproducible responses are being obtained with LTE4. Leukotriene C4 (LTC4) or D4 (LTD4), at a concentration of 8×10^-9 M, may be substituted for LTE4 in the same procedure.
Once tissue reproducibility has been established, test compounds are added to four baths following the 40 to 45 minute washout period. After a 10 minute incubation with test compound or vehicle, 8×10^-9 M LTE4, LTD4 or LTC4 is added and the response recorded. The percentage inhibition by the test compound or the percentage change in vehicle controls is calculated, for each tissue, according to the following equation: % inhibition=100 multiplied by (mg. tension increase of preceding response minus mg. tension increase in presence of compound) […]) divided by mg. tension increase of preceding response. The mean percentage change for vehicle controls and test compound are calculated and evaluated for significant differences by Students' t-test for unpaired data. Tissues exposed to test compounds were retested for responsiveness to LTE4, LTD4 or LTC4 following a 25 minute washout period. If tissue responsiveness was equal to responsiveness preceding exposure to the test compound additional studies were conducted. If responsiveness was not restored by the washing procedure, the tissues were discarded. The cyclooxygenase inhibitor, indomethacin, is present at 5×10^-6 M in all the determinations.
In general, compounds of formula I produce a significant increase in the time of onset of leukotriene initiated breathing changes following either oral, intravenous or intra peritoneal administration at a dose of 100 mg./kg., or much less, without any indication of untoward side-effects at several multiples of the minimum effective dose. By way of example, the compounds described in Examples 262, 158 and 168 produced significant increases in time required for onset of leukotriene D4 initiated disponoea following oral dosing at about 5 mg./kg., 43 mg./kg. and 50 mg./kg., respectively, 1-2 hours prior to leukotriene challenge.

Turning to `COc1cc(C(=O)O)ccc1Cn1ccc2ccc(NC(=O)CC3CCCC3)cc21` [Example 114], the leukotriene antagonist properties result was “potent leukotriene antagonist properties”.

As for `COc1cc(C(=O)O)ccc1Cn1ccc2ccc(NC(=O)OC3CCC3)cc21` [Example 122], the leukotriene antagonist properties result is “potent leukotriene antagonist properties”.

Take `CCCCOC(=O)Nc1ccc2ccn(Cc3ccc(-c4nnn[nH]4)cc3OC)c2c1` [Example 157, 6-(butoxycarbonyl)amino-1-(2-methoxy-4-[1(H)-tetrazol-5-yl]benzyl)indole]: the leukotriene antagonist properties result was “potent leukotriene antagonist properties”.

As to `COc1cc(-c2nnn[nH]2)ccc1Cn1ccc2ccc(NC(=O)OC3CCCC3)cc21` [Example 158, 6-(cyclopentyloxycarbonyl)amino-1-(2-methoxy-4-[1(H)tetrazol-5-yl]benzyl)indole], the leukotriene antagonist properties entry is listed as “potent leukotriene antagonist properties”.

Turning to `CCCCOC(=O)Nc1ccc2cnn(Cc3ccc(-c4nnn[nH]4)cc3OC)c2c1` [Example 161, 6-(butyloxycarbonyl)amino-1-(2-methoxy-4-[1(H)-tetrazol-5-yl]benzyl)indazole], the leukotriene antagonist properties entry is listed as “potent leukotriene antagonist properties”.

Take `COc1cc(-c2nnn[nH]2)ccc1Cn1ncc2ccc(NC(=O)OC3CCCC3)cc21` [Example 162, 6-(cyclopentyloxycarbonyl)amino-1-(2-methoxy-4-[1(H)-tetrazole-5-yl]benzyl)indazole]: the leukotriene antagonist properties entry was “potent leukotriene antagonist properties”.

On to `CCCCC(CC)C(=O)Nc1ccc2cnn(Cc3ccc(-c4nnn[nH]4)cc3OC)c2c1` (stereo not drawn) [Example 163, 6-(2-ethylhexanamido)-1-(2-methoxy-4-[2(H)-tetrazol-5-yl]benzyl)indazole], for which the leukotriene antagonist properties result was “potent leukotriene antagonist properties”.

With `COc1cc(C(=O)O)ccc1Cn1ncc2ccc(NC(=O)OC3CCCC3)cc21` [Example 170], the leukotriene antagonist properties result is given as “potent leukotriene antagonist properties”.

Turning to `COc1cc(C(=O)O)ccc1Cn1ccc2ccc(NC(=O)OC3CCCC3)cc21` [Example 176, 4-[6-(cyclopentyloxycarbonyl)aminoindol-1-ylmethyl]-3-methoxybenzoic acid], the leukotriene antagonist properties entry was “potent leukotriene antagonist properties”.

On to `COc1cc(C(=O)O)ccc1Cn1ccc2ccc(NC(=O)CC3CCCCC3)cc21` [Example 209], for which the leukotriene antagonist properties result is on record as “potent leukotriene antagonist properties”.

For `COc1cc(C(=O)O)ccc1Cn1cc(Cl)c2ccc(NC(=O)OC3CCCC3)cc21` [Example 221], the leukotriene antagonist properties result is recorded as “potent leukotriene antagonist properties”.

For `COc1cc(C(=O)O)ccc1Cn1cc(C(C)=O)c2ccc(NC(=O)OC3CCCC3)cc21` [Example 222], the leukotriene antagonist properties entry is on record as “potent leukotriene antagonist properties”.

As for `COc1cc(C(=O)O)ccc1Cn1cc(Cl)c2ccc(NC(=O)CC3CCCC3)cc21` [Example 224], the leukotriene antagonist properties entry is “potent leukotriene antagonist properties”.

As for `CCCCC(CC)C(=O)Nc1ccc2c(C=CC(=O)OC)cn(Cc3ccc(C(=O)O)cc3OC)c2c1` (stereo not drawn) [Example 241, 4-(3-[2-methoxycarbonylvinyl]-6-[2-ethylhexanamido]indol-1-ylmethyl)-3-methoxybenzoic acid], the leukotriene antagonist properties entry is on record as “potent leukotriene antagonist properties”.

Regarding `COc1cc(C(=O)NS(=O)(=O)c2ccccc2)ccc1Cn1ccc2ccc(NC(=O)OC3CCCC3)cc21` [Example 256, N-(4-[6-(cyclopentyloxycarbonyl)-aminoindol-1-ylmethyl]-3-methoxybenzoyl)benzenesulphonamide], the leukotriene antagonist properties result is given as “potent leukotriene antagonist properties”.

For `CCC(C(=O)Nc1ccc2cnn(Cc3ccc(C(=O)NS(=O)(=O)c4ccccc4)cc3OC)c2c1)c1ccccc1` (stereo not drawn) [Example 261, N-(4-[6-(2-phenylbutanamido)indazol-1-ylmethyl]-3-methoxybenzoyl)benzenesulphonamide], the leukotriene antagonist properties result is recorded as “potent leukotriene antagonist properties”.

In the case of `COc1cc(C(=O)NS(=O)(=O)c2ccccc2)ccc1Cn1ncc2ccc(NC(=O)OC3CCCC3)cc21` [Example 262], the leukotriene antagonist properties entry was “potent leukotriene antagonist properties”.

As to `COc1cc(C(=O)NS(=O)(=O)c2ccccc2)ccc1Cn1ncc2ccc(NC(=O)CC3CCCC3)cc21` [Example 263, N-(4-[6-(2-cyclopentylacetamido)indazol-1-ylmethyl]-3-methoxybenzoyl)benzenesulphonamide], the leukotriene antagonist properties entry was “potent leukotriene antagonist properties”.

In the case of `COc1cc(C(=O)NS(=O)(=O)c2ccccc2C)ccc1Cn1ncc2ccc(NC(=O)CC3CCCC3)cc21` [Example 264], the leukotriene antagonist properties entry is “potent leukotriene antagonist properties”.

As to `COc1cc(C(=O)NS(=O)(=O)c2ccccc2C)ccc1Cn1ccc2ccc(NC(=O)CC3CCCC3)cc21` [Example 265], the leukotriene antagonist properties entry is reported as “potent leukotriene antagonist properties”.

For `COc1cc(C(=O)NS(=O)(=O)c2ccccc2N)ccc1Cn1ccc2ccc(NC(=O)CC3CCCC3)cc21` [Example 266], the leukotriene antagonist properties result was “potent leukotriene antagonist properties”.

Regarding `COc1cc(C(=O)NS(=O)(=O)c2ccccc2)ccc1Cn1cc(C(C)=O)c2ccc(NC(=O)OC3CCCC3)cc21` [Example 277, N-(4-[3-acetyl-6-(cyclopentyloxycarbonyl)aminoindol-1-ylmethyl]-3-methoxybenzoyl)benzenesulphonamide], the leukotriene antagonist properties result was “potent leukotriene antagonist properties”.

Turning to `COc1cc(C(=O)NS(=O)(=O)c2ccccc2)ccc1Cn1ccc2ccc(NC(=O)C3CCCC3)cc21` [Example 278], the leukotriene antagonist properties result is on record as “potent leukotriene antagonist properties”.

Regarding `COc1cc(C(=O)NS(=O)(=O)c2ccccc2)ccc1Cn1cc(Cl)c2ccc(NC(=O)OC3CCCC3)cc21` [Example 279], the leukotriene antagonist properties result is “potent leukotriene antagonist properties”.

Take `COc1cc(C(=O)NS(=O)(=O)c2ccccc2)ccc1Cn1ccc2ccc(NC(=O)CC3CCCC3)cc21` [Example 280, N-(4-[6-(2-cyclopentylacetamido)indol-1-ylmethyl]-3-methoxybenzoyl)benzenesulphonamide]: the leukotriene antagonist properties result is “potent leukotriene antagonist properties”.

As to `COc1cc(C(=O)NS(=O)(=O)c2ccccc2)ccc1CN1CCc2ccc(NC(=O)CC3CCCC3)cc21` [Example 284, N-(4-[6-(2-cyclopentylacetamido)indolin-1-ylmethyl]-3-methoxybenzoyl)benzenesulphonamide], the leukotriene antagonist properties entry is “potent leukotriene antagonist properties”.

For `CCCCOC(=O)Nc1ccc2cnn(Cc3ccc(C(=O)NS(=O)(=O)c4ccccc4)cc3OC)c2c1` [Example 294], the leukotriene antagonist properties entry is given as “potent leukotriene antagonist properties”.
